Measured values reported in ChEMBL document CHEMBL3769368, “Semi-synthesis and anti-tumor evaluation of novel 25-hydroxyprotopanaxadiol derivatives as apoptosis inducing agents” (Medchemcomm, 2015).

Columns and labels:
[1] = Antiproliferative activity against human PC3 cells after 48 hrs by MTT assay; format: functional, cell-based; conditions: PC-3, 48 h
[2] = Antiproliferative activity against human alpha-2 cells after 48 hrs by MTT assay; format: functional, cell-based
MDA-MB-231 = assay: Antiproliferative activity against human MDA-MB-231 cells after 48 hrs by MTT assay; format: functional, cell-based; conditions: MDA-MB-231, 48 h
[3] = Antiproliferative activity against human DU145 cells after 48 hrs by MTT assay; format: functional, cell-based; conditions: DU-145, 48 h
[4] = Antiproliferative activity against human BGC823 cells after 48 hrs by MTT assay; format: functional, cell-based; conditions: BGC-823, 48 h
[5] = Cytotoxicity against human IOSE-144 cells after 48 hrs by MTT assay; format: cell-based; conditions: IOSE-144, 48 h

Compound	IC50 [1] [µM]	IC50 [2] [µM]	IC50 (MDA-MB-231) [µM]	IC50 [3] [µM]	IC50 [4] [µM]	IC50 [5] [µM]
CC(C)(O)CCC[C@@](C)(O)[C@H]1CC[C@]2(C)[C@@H]1[C@H](OC(=O)[C@H](Cc1cnc[nH]1)NC(=O)OC(C)(C)C)C[C@@H]1[C@@]3(C)CC[C@H](O)C(C)(C)[C@@H]3CC[C@]12C	86	72	23	> 100	38	> 100
CC(C)(O)CCC[C@@](C)(O)[C@H]1CC[C@]2(C)[C@@H]1[C@H](OC(=O)[C@H](CCC(=O)OCc1ccccc1)NC(=O)OC(C)(C)C)C[C@@H]1[C@@]3(C)CC[C@H](OC(=O)[C@H](CCC(=O)OCc4ccccc4)NC(=O)OC(C)(C)C)C(C)(C)[C@@H]3CC[C@]12C	> 100	61	89	> 100	> 100	> 100
C[C@@H](O)[C@H](NC(=O)OC(C)(C)C)C(=O)O[C@H]1CC[C@]2(C)[C@H]3C[C@@H](O)[C@@H]4[C@@H]([C@](C)(O)CCCC(C)(C)O)CC[C@@]4(C)[C@]3(C)CC[C@H]2C1(C)C	28	24	14	25	22	> 100
CC[C@H](C)[C@H](N)C(=O)O[C@H]1CC[C@]2(C)[C@H]3C[C@@H](O)[C@@H]4[C@@H]([C@](C)(O)CCCC(C)(C)O)CC[C@@]4(C)[C@]3(C)CC[C@H]2C1(C)C	8.4	17	6.4	14	10	> 100
C[C@H](N)C(=O)O[C@H]1CC[C@]2(C)[C@H]3C[C@@H](O)[C@@H]4[C@@H]([C@](C)(O)CCCC(C)(C)O)CC[C@@]4(C)[C@]3(C)CC[C@H]2C1(C)C	7.6	11	4.8	8	7.9	> 100
CC(C)C[C@H](NC(=O)OC(C)(C)C)C(=O)O[C@H]1CC[C@]2(C)[C@H]3C[C@@H](OC(=O)[C@H](CC(C)C)NC(=O)OC(C)(C)C)[C@@H]4[C@@H]([C@](C)(O)CCCC(C)(C)O)CC[C@@]4(C)[C@]3(C)CC[C@H]2C1(C)C	> 100	73	> 100	> 100	> 100	> 100
CC(C)C[C@H](NC(=O)OC(C)(C)C)C(=O)O[C@H]1CC[C@]2(C)[C@H]3C[C@@H](O)[C@@H]4[C@@H]([C@](C)(O)CCCC(C)(C)O)CC[C@@]4(C)[C@]3(C)CC[C@H]2C1(C)C	41	32	17	26	24	> 100
CC(C)(O)CCC[C@@](C)(O)[C@H]1CC[C@]2(C)[C@@H]1[C@H](O)C[C@@H]1[C@@]3(C)CC[C@H](OC(=O)[C@H](CCCNC(=N)N)NC(=O)OC(C)(C)C)C(C)(C)[C@@H]3CC[C@]12C	12	13	8	11	12	> 100
CC(C)(O)CCC[C@@](C)(O)[C@H]1CC[C@]2(C)[C@@H]1[C@H](O)C[C@@H]1[C@@]3(C)CC[C@H](OC(=O)[C@@H](N)Cc4cnc[nH]4)C(C)(C)[C@@H]3CC[C@]12C	10	11	5.3	9.6	12	> 100
CC(C)(O)CCC[C@@](C)(O)[C@H]1CC[C@]2(C)[C@@H]1[C@H](OC(=O)[C@H](Cc1ccc(O)cc1)NC(=O)OC(C)(C)C)C[C@@H]1[C@@]3(C)CC[C@H](O)C(C)(C)[C@@H]3CC[C@]12C	63	84	29	> 100	90	> 100
CC(C)C[C@H](N)C(=O)O[C@H]1CC[C@]2(C)[C@H]3C[C@@H](O)[C@@H]4[C@@H]([C@](C)(O)CCCC(C)(C)O)CC[C@@]4(C)[C@]3(C)CC[C@H]2C1(C)C	7.9	16	4.8	7.6	8.9	> 100
C[C@H](N)C(=O)O[C@@H]1C[C@@H]2[C@@]3(C)CC[C@H](O)C(C)(C)[C@@H]3CC[C@@]2(C)[C@]2(C)CC[C@H]([C@](C)(O)CCCC(C)(C)O)[C@@H]12	8.8	9.2	5.7	14	9	> 100
C[C@H](NC(=O)OC(C)(C)C)C(=O)O[C@H]1CC[C@]2(C)[C@H]3C[C@@H](O)[C@@H]4[C@@H]([C@](C)(O)CCCC(C)(C)O)CC[C@@]4(C)[C@]3(C)CC[C@H]2C1(C)C	22	24	17	23	18	> 100
CC(C)(O)CCC[C@@](C)(O)[C@H]1CC[C@]2(C)[C@@H]1[C@H](O)C[C@@H]1[C@@]3(C)CC[C@H](O)C(C)(C)[C@@H]3CC[C@]12C	57	48	33	53	46	> 100
CC[C@H](C)[C@H](NC(=O)OC(C)(C)C)C(=O)O[C@H]1CC[C@]2(C)[C@H]3C[C@@H](O)[C@@H]4[C@@H]([C@](C)(O)CCCC(C)(C)O)CC[C@@]4(C)[C@]3(C)CC[C@H]2C1(C)C	24	36	18	58	22	> 100
CC(C)(O)CCC[C@@](C)(O)[C@H]1CC[C@]2(C)[C@@H]1[C@H](O)C[C@@H]1[C@@]3(C)CC[C@H](OC(=O)[C@H](Cc4ccc(O)cc4)NC(=O)OC(C)(C)C)C(C)(C)[C@@H]3CC[C@]12C	25	33	19	34	37	> 100
CC(C)(O)CCC[C@@](C)(O)[C@H]1CC[C@]2(C)[C@@H]1[C@H](O)C[C@@H]1[C@@]3(C)CC[C@H](OC(=O)[C@H](CO)NC(=O)OC(C)(C)C)C(C)(C)[C@@H]3CC[C@]12C	25	24	18	25	21	> 100
O=c1[nH]cc(F)c(=O)[nH]1 [FLUOROURACIL]	46	33	20	38	37	29
CC(C)(O)CCC[C@@](C)(O)[C@H]1CC[C@]2(C)[C@@H]1[C@H](O)C[C@@H]1[C@@]3(C)CC[C@H](OC(=O)[C@H](Cc4cnc[nH]4)NC(=O)OC(C)(C)C)C(C)(C)[C@@H]3CC[C@]12C	28	20	17	21	27	> 100
CC(C)(O)CCC[C@@](C)(O)[C@H]1CC[C@]2(C)[C@@H]1[C@H](O)C[C@@H]1[C@@]3(C)CC[C@H](OC(=O)[C@H](CCC(=O)OCc4ccccc4)NC(=O)OC(C)(C)C)C(C)(C)[C@@H]3CC[C@]12C	29	28	19	54	23	> 100
CC(C)C[C@H](NC(=O)OC(C)(C)C)C(=O)O[C@@H]1C[C@@H]2[C@@]3(C)CC[C@H](O)C(C)(C)[C@@H]3CC[C@@]2(C)[C@]2(C)CC[C@H]([C@](C)(O)CCCC(C)(C)O)[C@@H]12	> 100	86	> 100	> 100	> 100	> 100
C[C@H](NC(=O)OC(C)(C)C)C(=O)O[C@@H]1C[C@@H]2[C@@]3(C)CC[C@H](O)C(C)(C)[C@@H]3CC[C@@]2(C)[C@]2(C)CC[C@H]([C@](C)(O)CCCC(C)(C)O)[C@@H]12	49	34	46	> 100	40	> 100
CC[C@H](C)[C@H](NC(=O)OC(C)(C)C)C(=O)O[C@@H]1C[C@@H]2[C@@]3(C)CC[C@H](O)C(C)(C)[C@@H]3CC[C@@]2(C)[C@]2(C)CC[C@H]([C@](C)(O)CCCC(C)(C)O)[C@@H]12	> 100	81	> 100	> 100	> 100	> 100
CC[C@H](C)[C@H](NC(=O)OC(C)(C)C)C(=O)O[C@H]1CC[C@]2(C)[C@H]3C[C@@H](OC(=O)[C@@H](NC(=O)OC(C)(C)C)[C@@H](C)CC)[C@@H]4[C@@H]([C@](C)(O)CCCC(C)(C)O)CC[C@@]4(C)[C@]3(C)CC[C@H]2C1(C)C	> 100	69	> 100	> 100	> 100	> 100
CC(C)(O)CCC[C@@](C)(O)[C@H]1CC[C@]2(C)[C@@H]1[C@H](OC(=O)[C@H](CCC(=O)OCc1ccccc1)NC(=O)OC(C)(C)C)C[C@@H]1[C@@]3(C)CC[C@H](O)C(C)(C)[C@@H]3CC[C@]12C	> 100	85	79	> 100	> 100	> 100
C[C@H](NC(=O)OC(C)(C)C)C(=O)O[C@H]1CC[C@]2(C)[C@H]3C[C@@H](OC(=O)[C@H](C)NC(=O)OC(C)(C)C)[C@@H]4[C@@H]([C@](C)(O)CCCC(C)(C)O)CC[C@@]4(C)[C@]3(C)CC[C@H]2C1(C)C	> 100	57	80	> 100	81	> 100
